In patent US20150105252A1, “SUBSTITUTED PYRAZOLES AS HERBICIDES” (E I DU PONT DE NEMOURS AND COMPANY, priority 2013, published 2015):

Assays:
[1] = system: crabgrass, large; experiment: Test A postemergence; assay type: in vivo, Digitaria sanguinalis
Method in brief: (§1)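 Both timings tested concurrently in loam/sand soil: preemergence by directed soil spray, postemergence on plants of 2–10 cm at the one- to two-leaf stage. Greenhouse holding period was approximately 10 days before visual injury assessment (0–100, 0 = no effect).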

[2] = system: soybean; experiment: Test C preemergence; assay type: in vivo, Glycine max; conditions: preemergence; for Plant response rating, Soybean: 125 g ai/ha, scale 0 to 100, 0 = no effect, 100 = complete control
Method in brief: (§2)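 In this greenhouse assay, seeded soil (loam plus sand) or emerged seedlings in peat-vermiculite medium were treated with formulated compound. Roughly two weeks later (13–15 days), each species was scored visually relative to controls, from 0 for no effect to 100 for complete control.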

[3] = system: blackgrass; experiment: Test C preemergence; assay type: in vivo, Alopecurus myosuroides; conditions: preemergence; for Plant response rating, Blackgrass: 125 g ai/ha, scale 0 to 100, 0 = no effect, 100 = complete control
Method in brief: as §2

[4] = system: barnyardgrass; experiment: Test A preemergence; assay type: in vivo, Echinochloa crus-galli; conditions: preemergence
Method in brief: as §1

[5] = system: galium; experiment: Test C preemergence; assay type: in vivo, Galium aparine; conditions: preemergence; for Plant response rating, Galium: 125 g ai/ha, scale 0 to 100, 0 = no effect, 100 = complete control
Method in brief: as §2

[6] = system: velvetleaf; experiment: Test A postemergence; assay type: in vivo, Abutilon theophrasti
Method in brief: as §1

[7] = system: barnyardgrass; experiment: Test C preemergence; assay type: in vivo, Echinochloa crus-galli; conditions: preemergence; for Plant response rating, Barnyardgrass: 125 g ai/ha, scale 0 to 100, 0 = no effect, 100 = complete control
Method in brief: as §2

[8] = system: johnsongrass; experiment: Test C preemergence; assay type: in vivo, Sorghum halepense; conditions: preemergence; for Plant response rating, Johnsongrass: 125 g ai/ha, scale 0 to 100, 0 = no effect, 100 = complete control
Method in brief: as §2

[9] = system: velvetleaf; experiment: Test C preemergence; assay type: in vivo, Abutilon theophrasti; conditions: preemergence; for Plant response rating, Velvetleaf: 125 g ai/ha, scale 0 to 100, 0 = no effect, 100 = complete control
Method in brief: as §2

[10] = system: ryegrass, Italian; experiment: Test C preemergence; assay type: in vivo, Lolium multiflorum; conditions: preemergence; for Plant response rating, Ryegrass, Italian: 125 g ai/ha, scale 0 to 100, 0 = no effect, 100 = complete control
Method in brief: as §2

[11] = system: wheat; experiment: Test C preemergence; assay type: in vivo, Triticum aestivum; conditions: preemergence; for Plant response rating, Wheat: 125 g ai/ha, scale 0 to 100, 0 = no effect, 100 = complete control
Method in brief: as §2

[12] = system: pigweed; experiment: Test C preemergence; assay type: in vivo, Amaranthus retroflexus; conditions: preemergence; for Plant response rating, Pigweed: 125 g ai/ha, scale 0 to 100, 0 = no effect, 100 = complete control
Method in brief: as §2

[13] = system: corn; experiment: Test C preemergence; assay type: in vivo, Zea mays; conditions: preemergence; for Plant response rating, Corn: 125 g ai/ha, scale 0 to 100, 0 = no effect, 100 = complete control
Method in brief: as §2

[14] = system: oilseed rape; experiment: Test C preemergence; assay type: in vivo, Brassica napus; conditions: preemergence; for Plant response rating, Oilseed Rape: 125 g ai/ha, scale 0 to 100, 0 = no effect, 100 = complete control
Method in brief: as §2

[15] = system: corn; experiment: Test A postemergence; assay type: in vivo, Zea mays
Method in brief: as §1

[16] = Postemergence, 500 g ai/ha, 0 to 100 scale (0 no effect, 100 complete control)
[17] = postemergence, 125 g ai/ha, about 10 days, visual rating on 0 to 100 scale (0 no effect, 100 complete control)
[18] = 31 g ai/ha, visual rating, scale 0 to 100 (0 no effect, 100 complete control), 13 to 15 days
[19] = 62 g ai/ha, scale 0 to 100 (0 no effect, 100 complete control), 13 to 15 days
[20] = 250 g ai/ha, scale 0 to 100, 0 is no effect, 100 is complete control
[21] = 125 g ai/ha, visual injury, 0 to 100 scale, approx. 10 days
[22] = 500 g ai/ha, visual injury after approx. 10 days, 0 to 100 scale (0 no effect, 100 complete control)

CCc1cc(C(=O)NC(C)C)nn1Cc1ccnc(C(F)(F)F)c1 [Compound 139]
Crabgrass, Large plant response rating [1, 16]: 90
Crabgrass, Large plant response rating [1, 17]: 90
Soybean plant response rating [2, 18]: 5
Soybean plant response rating [2, 19]: 5
Plant response rating, Soybean ([2]; 13 to 15 days): 30
Soybean plant response rating [2, 20]: 60
Blackgrass plant response rating [3, 18]: 85
Blackgrass plant response rating [3, 19]: 90
Plant response rating, Blackgrass ([3]; 13 to 15 days): 90
Blackgrass plant response rating [3, 20]: 90
Barnyardgrass plant response rating [4, 21]: 90
Barnyardgrass plant response rating [4, 22]: 100
Galium plant response rating [5, 18]: 30
Galium plant response rating [5, 19]: 80
Plant response rating, Galium ([5]; 13 to 15 days): 100
Galium plant response rating [5, 20]: 100
Velvetleaf plant response rating [6, 16]: 90
Velvetleaf plant response rating [6, 17]: 40
Barnyardgrass plant response rating ([7]; 31 g ai/ha, scale 0 to 100 (0 no effect, 100 complete control), 13 to 15 days): 40
Barnyardgrass plant response rating [7, 19]: 98
Plant response rating, Barnyardgrass ([7]; 13 to 15 days): 100
Barnyardgrass plant response rating [7, 20]: 100
Johnsongrass plant response rating [8, 18]: 10
Johnsongrass plant response rating [8, 19]: 70
Plant response rating, Johnsongrass ([8]; 13 to 15 days): 85
Johnsongrass plant response rating [8, 20]: 98
Velvetleaf plant response rating [9, 18]: 0
Velvetleaf plant response rating [9, 19]: 10
Plant response rating, Velvetleaf ([9]; 13 to 15 days): 95
Velvetleaf plant response rating [9, 20]: 100
Ryegrass, Italian plant response rating [10, 18]: 10
Ryegrass, Italian plant response rating [10, 19]: 60
Plant response rating, Ryegrass, Italian ([10]; 13 to 15 days): 90
Ryegrass, Italian plant response rating [10, 20]: 90
Wheat plant response rating [11, 18]: 30
Wheat plant response rating [11, 19]: 85
Plant response rating, Wheat ([11]; 13 to 15 days): 85
Wheat plant response rating [11, 20]: 90
Pigweed plant response rating [12, 18]: 55
Pigweed plant response rating [12, 19]: 90
Plant response rating, Pigweed ([12]; 13 to 15 days): 90
Pigweed plant response rating [12, 20]: 100
Corn plant response rating [13, 18]: 25
Corn plant response rating [13, 19]: 30
Plant response rating, Corn ([13]; 13 to 15 days): 85
Corn plant response rating [13, 20]: 80
Oilseed Rape plant response rating [14, 18]: 50
Oilseed Rape plant response rating [14, 19]: 100
Plant response rating, Oilseed Rape ([14]; 13 to 15 days): 100
Oilseed Rape plant response rating [14, 20]: 100
Corn plant response rating [15, 16]: 90
Corn plant response rating [15, 17]: 50

O=C(NCC(F)(F)F)c1cc(CCCl)n(Cc2ccnc(C(F)(F)F)c2)n1 [Compound 143]
Crabgrass, Large plant response rating [1, 16]: 90
Crabgrass, Large plant response rating [1, 17]: 90
Soybean plant response rating [2, 18]: 35
Soybean plant response rating [2, 19]: 85
Plant response rating, Soybean ([2]; 13 to 15 days): 98
Soybean plant response rating [2, 20]: 98
Blackgrass plant response rating [3, 18]: 85
Blackgrass plant response rating [3, 19]: 85
Plant response rating, Blackgrass ([3]; 13 to 15 days): 90
Blackgrass plant response rating [3, 20]: 90
Barnyardgrass plant response rating [4, 21]: 90
Barnyardgrass plant response rating [4, 22]: 100
Galium plant response rating [5, 18]: 90
Galium plant response rating [5, 19]: 100
Plant response rating, Galium ([5]; 13 to 15 days): 95
Galium plant response rating [5, 20]: 100
Velvetleaf plant response rating [6, 16]: 90
Velvetleaf plant response rating [6, 17]: 80
Barnyardgrass plant response rating [7, 18]: 75
Barnyardgrass plant response rating [7, 19]: 100
Plant response rating, Barnyardgrass ([7]; 13 to 15 days): 100
Barnyardgrass plant response rating [7, 20]: 100
Johnsongrass plant response rating [8, 18]: 70
Johnsongrass plant response rating [8, 19]: 85
Plant response rating, Johnsongrass ([8]; 13 to 15 days): 95
Johnsongrass plant response rating [8, 20]: 95
Velvetleaf plant response rating [9, 18]: 100
Velvetleaf plant response rating [9, 19]: 98
Plant response rating, Velvetleaf ([9]; 13 to 15 days): 100
Velvetleaf plant response rating [9, 20]: 100
Ryegrass, Italian plant response rating [10, 18]: 35
Ryegrass, Italian plant response rating [10, 19]: 80
Plant response rating, Ryegrass, Italian ([10]; 13 to 15 days): 90
Ryegrass, Italian plant response rating [10, 20]: 90
Wheat plant response rating [11, 18]: 40
Wheat plant response rating [11, 19]: 60
Plant response rating, Wheat ([11]; 13 to 15 days): 80
Wheat plant response rating [11, 20]: 85
Pigweed plant response rating [12, 18]: 100
Pigweed plant response rating [12, 19]: 100
Plant response rating, Pigweed ([12]; 13 to 15 days): 100
Pigweed plant response rating [12, 20]: 100
Corn plant response rating [13, 18]: 40
Corn plant response rating [13, 19]: 75
Plant response rating, Corn ([13]; 13 to 15 days): 90
Corn plant response rating [13, 20]: 95
Oilseed Rape plant response rating [14, 18]: 100
Oilseed Rape plant response rating [14, 19]: 100
Plant response rating, Oilseed Rape ([14]; 13 to 15 days): 95
Oilseed Rape plant response rating [14, 20]: 100
Corn plant response rating [15, 16]: 90
Corn plant response rating [15, 17]: 60

CCCNC(=O)c1cc(CCCl)n(Cc2ccnc(C(F)(F)F)c2)n1 [Compound 145]
Crabgrass, Large plant response rating [1, 16]: 90
Crabgrass, Large plant response rating [1, 17]: 90
Soybean plant response rating [2, 18]: 20
Soybean plant response rating [2, 19]: 70
Plant response rating, Soybean ([2]; 13 to 15 days): 85
Soybean plant response rating [2, 20]: 95
Blackgrass plant response rating [3, 18]: 70
Blackgrass plant response rating [3, 19]: 85
Plant response rating, Blackgrass ([3]; 13 to 15 days): 90
Blackgrass plant response rating [3, 20]: 90
Barnyardgrass plant response rating [4, 21]: 90
Barnyardgrass plant response rating [4, 22]: 100
Galium plant response rating [5, 18]: 90
Galium plant response rating [5, 19]: 95
Plant response rating, Galium ([5]; 13 to 15 days): 95
Galium plant response rating [5, 20]: 100
Velvetleaf plant response rating [6, 16]: 100
Velvetleaf plant response rating [6, 17]: 70
Barnyardgrass plant response rating [7, 18]: 95
Plant response rating, Barnyardgrass ([7]; 13 to 15 days): 100
Barnyardgrass plant response rating [7, 20]: 100
Johnsongrass plant response rating [8, 18]: 55
Plant response rating, Johnsongrass ([8]; 13 to 15 days): 98
Johnsongrass plant response rating [8, 20]: 98
Velvetleaf plant response rating [9, 18]: 90
Velvetleaf plant response rating [9, 19]: 100
Plant response rating, Velvetleaf ([9]; 13 to 15 days): 100
Velvetleaf plant response rating [9, 20]: 100
Ryegrass, Italian plant response rating [10, 18]: 5
Ryegrass, Italian plant response rating [10, 19]: 45
Plant response rating, Ryegrass, Italian ([10]; 13 to 15 days): 85
Ryegrass, Italian plant response rating [10, 20]: 90
Wheat plant response rating [11, 18]: 5
Wheat plant response rating [11, 19]: 40
Plant response rating, Wheat ([11]; 13 to 15 days): 50
Wheat plant response rating [11, 20]: 90
Pigweed plant response rating [12, 18]: 100
Pigweed plant response rating [12, 19]: 100
Plant response rating, Pigweed ([12]; 13 to 15 days): 100
Pigweed plant response rating [12, 20]: 100
Corn plant response rating [13, 18]: 10
Corn plant response rating [13, 19]: 50
Plant response rating, Corn ([13]; 13 to 15 days): 80
Corn plant response rating [13, 20]: 90
Oilseed Rape plant response rating [14, 18]: 60
Oilseed Rape plant response rating [14, 19]: 98
Plant response rating, Oilseed Rape ([14]; 13 to 15 days): 100
Oilseed Rape plant response rating [14, 20]: 98
Corn plant response rating [15, 16]: 90
Corn plant response rating [15, 17]: 60
